Here are results for 10 compounds from ChEMBL document CHEMBL3352351 (Bioorg Med Chem, 2014).

Where only a bound is given, the exact number is not on record here.

In experiment [1] the target is Hepatocyte growth factor receptor (Homo sapiens, UniProt P08581). In words: Inhibition of c-Met (unknown origin) using poly (Glu, Tyr) 4:1 substrate incubated for 30 mins by HTRF assay.
Experiment [2] in a line: Cytotoxicity against human H460 cells after 72 hrs by MTT assay. The settings on record: NCI-H460, 72 h.
The target in experiment [3] is Vascular endothelial growth factor receptor 2 (Homo sapiens, UniProt P35968). As to the kind of experiment: Inhibition of KDR (unknown origin) using poly (Glu, Tyr) 4:1 substrate incubated for 30 mins by HTRF assay.
Sequence of Vascular endothelial growth factor receptor 2 (P35968 whole entry): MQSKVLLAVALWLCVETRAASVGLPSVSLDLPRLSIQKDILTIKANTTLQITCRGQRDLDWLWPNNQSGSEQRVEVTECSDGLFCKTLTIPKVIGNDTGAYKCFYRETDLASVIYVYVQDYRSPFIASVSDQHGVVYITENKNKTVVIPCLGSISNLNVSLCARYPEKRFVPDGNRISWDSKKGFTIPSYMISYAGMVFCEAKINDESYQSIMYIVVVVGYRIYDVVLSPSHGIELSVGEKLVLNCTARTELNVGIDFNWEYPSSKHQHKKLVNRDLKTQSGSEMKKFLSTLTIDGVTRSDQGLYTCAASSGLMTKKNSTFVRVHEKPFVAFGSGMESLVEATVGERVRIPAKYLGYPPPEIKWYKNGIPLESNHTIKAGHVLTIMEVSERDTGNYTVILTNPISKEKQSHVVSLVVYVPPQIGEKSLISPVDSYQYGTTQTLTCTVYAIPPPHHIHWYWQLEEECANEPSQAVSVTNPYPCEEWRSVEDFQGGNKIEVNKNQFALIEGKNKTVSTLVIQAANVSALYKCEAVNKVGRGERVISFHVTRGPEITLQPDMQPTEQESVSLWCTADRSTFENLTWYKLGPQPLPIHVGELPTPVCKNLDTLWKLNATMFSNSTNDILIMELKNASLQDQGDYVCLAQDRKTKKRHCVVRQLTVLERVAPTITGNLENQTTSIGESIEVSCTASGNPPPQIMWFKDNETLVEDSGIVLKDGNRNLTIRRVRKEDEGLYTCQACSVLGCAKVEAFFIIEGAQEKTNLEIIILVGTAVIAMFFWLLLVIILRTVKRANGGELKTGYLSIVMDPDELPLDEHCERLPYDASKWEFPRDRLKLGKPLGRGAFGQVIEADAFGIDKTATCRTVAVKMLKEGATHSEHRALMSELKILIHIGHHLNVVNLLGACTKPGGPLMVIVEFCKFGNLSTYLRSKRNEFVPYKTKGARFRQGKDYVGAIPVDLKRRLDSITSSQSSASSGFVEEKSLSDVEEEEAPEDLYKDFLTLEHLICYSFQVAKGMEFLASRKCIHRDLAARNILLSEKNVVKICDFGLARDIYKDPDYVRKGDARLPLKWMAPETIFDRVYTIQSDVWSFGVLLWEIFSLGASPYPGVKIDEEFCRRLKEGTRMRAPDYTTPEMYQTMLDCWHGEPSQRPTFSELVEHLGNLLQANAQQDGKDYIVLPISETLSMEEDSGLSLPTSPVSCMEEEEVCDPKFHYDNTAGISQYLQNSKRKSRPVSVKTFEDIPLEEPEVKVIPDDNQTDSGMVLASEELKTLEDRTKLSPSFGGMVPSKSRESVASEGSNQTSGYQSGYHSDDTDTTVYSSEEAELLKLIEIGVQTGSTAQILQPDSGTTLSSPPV
Experiment [4] concerns the target T1, Receptor-type tyrosine-protein kinase FLT3 (Homo sapiens, UniProt P36888).
T1 sequence (P36888 whole entry): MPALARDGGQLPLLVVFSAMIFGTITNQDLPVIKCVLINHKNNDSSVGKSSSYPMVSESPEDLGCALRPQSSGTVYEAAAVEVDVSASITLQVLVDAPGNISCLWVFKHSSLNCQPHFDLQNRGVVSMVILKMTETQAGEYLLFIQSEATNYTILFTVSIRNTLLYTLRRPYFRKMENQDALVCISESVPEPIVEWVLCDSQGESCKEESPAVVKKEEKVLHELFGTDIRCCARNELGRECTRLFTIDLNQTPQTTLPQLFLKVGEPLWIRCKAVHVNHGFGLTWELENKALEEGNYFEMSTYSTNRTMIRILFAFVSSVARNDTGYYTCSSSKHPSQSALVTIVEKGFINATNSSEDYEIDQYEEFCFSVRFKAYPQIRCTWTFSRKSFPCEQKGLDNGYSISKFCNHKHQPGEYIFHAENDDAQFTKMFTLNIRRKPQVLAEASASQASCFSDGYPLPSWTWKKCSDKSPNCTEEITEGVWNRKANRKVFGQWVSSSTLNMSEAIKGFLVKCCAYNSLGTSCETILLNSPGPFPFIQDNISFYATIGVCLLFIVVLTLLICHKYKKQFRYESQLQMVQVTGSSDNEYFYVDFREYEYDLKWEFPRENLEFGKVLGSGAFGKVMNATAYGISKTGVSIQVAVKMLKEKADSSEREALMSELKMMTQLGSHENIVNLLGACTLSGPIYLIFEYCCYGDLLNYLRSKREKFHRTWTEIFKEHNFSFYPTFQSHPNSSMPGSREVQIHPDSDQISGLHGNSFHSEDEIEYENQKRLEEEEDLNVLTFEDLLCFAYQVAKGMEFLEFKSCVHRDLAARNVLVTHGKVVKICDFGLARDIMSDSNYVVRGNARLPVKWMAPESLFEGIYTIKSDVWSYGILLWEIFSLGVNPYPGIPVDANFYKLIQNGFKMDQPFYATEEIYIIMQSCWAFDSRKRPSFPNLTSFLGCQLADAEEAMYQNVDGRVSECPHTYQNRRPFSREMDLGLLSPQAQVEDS
In words: Inhibition of FLT3 (unknown origin) using poly (Glu, Tyr) 4:1 substrate incubated for 30 mins by HTRF assay.

The target in experiment [5] is Epidermal growth factor receptor (Homo sapiens, UniProt P00533). In words: Inhibition of EGFR (unknown origin) using poly (Glu, Tyr) 4:1 substrate incubated for 30 mins by HTRF assay.
Sequence of Epidermal growth factor receptor (P00533 whole entry): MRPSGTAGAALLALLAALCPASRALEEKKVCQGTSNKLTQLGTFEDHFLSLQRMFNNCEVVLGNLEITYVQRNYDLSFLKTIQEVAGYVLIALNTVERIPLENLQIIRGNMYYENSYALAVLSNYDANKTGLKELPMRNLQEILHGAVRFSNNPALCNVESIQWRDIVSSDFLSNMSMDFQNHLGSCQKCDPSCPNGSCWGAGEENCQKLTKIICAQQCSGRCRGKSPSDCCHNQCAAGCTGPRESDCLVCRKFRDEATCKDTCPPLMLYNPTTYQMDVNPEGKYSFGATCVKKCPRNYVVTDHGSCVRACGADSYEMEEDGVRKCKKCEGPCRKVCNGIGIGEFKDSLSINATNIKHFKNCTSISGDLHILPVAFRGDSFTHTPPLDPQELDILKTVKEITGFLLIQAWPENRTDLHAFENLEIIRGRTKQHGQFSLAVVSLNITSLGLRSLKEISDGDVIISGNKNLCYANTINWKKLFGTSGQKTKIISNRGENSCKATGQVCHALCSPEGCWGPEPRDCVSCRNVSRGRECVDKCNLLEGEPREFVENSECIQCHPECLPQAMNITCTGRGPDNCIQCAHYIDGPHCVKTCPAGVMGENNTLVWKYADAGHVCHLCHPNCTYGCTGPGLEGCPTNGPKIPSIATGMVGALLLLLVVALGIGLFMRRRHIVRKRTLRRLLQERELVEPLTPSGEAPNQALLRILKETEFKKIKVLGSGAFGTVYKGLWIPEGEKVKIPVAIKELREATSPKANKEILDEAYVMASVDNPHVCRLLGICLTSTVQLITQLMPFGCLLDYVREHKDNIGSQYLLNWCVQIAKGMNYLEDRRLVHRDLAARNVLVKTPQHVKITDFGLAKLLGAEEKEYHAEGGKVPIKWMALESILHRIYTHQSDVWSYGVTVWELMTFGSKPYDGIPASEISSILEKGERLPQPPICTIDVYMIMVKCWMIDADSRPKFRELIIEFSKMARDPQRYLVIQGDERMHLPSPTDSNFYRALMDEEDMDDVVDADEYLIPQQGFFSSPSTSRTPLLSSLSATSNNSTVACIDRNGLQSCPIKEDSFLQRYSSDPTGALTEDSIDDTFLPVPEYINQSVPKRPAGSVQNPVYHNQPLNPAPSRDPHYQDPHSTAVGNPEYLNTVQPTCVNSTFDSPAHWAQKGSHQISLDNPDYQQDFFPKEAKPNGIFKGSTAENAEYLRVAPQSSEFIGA
Experiment [6] is described as follows: Cytotoxicity against human U87MG cells after 72 hrs by MTT assay. It is filed as functional, cell-based, U-87MG ATCC. The settings on record: U-87 MG.
In experiment [7] the target is Mast/stem cell growth factor receptor Kit (Homo sapiens, UniProt P10721). In words: Inhibition of c-Kit (unknown origin) using poly (Glu, Tyr) 4:1 substrate incubated for 30 mins by HTRF assay.
Experiment [8] deals with A549. In words: Cytotoxicity against human A549 cells after 72 hrs by MTT assay. The settings on record: A549, 72 h.
Experiment [9] deals with Platelet-derived growth factor receptor beta (Homo sapiens, UniProt P09619). As to the kind of experiment: Inhibition of PDGFRbeta (unknown origin) using poly (Glu, Tyr) 4:1 substrate incubated for 30 mins by HTRF assay.
Sequence of Platelet-derived growth factor receptor beta (P09619 whole entry): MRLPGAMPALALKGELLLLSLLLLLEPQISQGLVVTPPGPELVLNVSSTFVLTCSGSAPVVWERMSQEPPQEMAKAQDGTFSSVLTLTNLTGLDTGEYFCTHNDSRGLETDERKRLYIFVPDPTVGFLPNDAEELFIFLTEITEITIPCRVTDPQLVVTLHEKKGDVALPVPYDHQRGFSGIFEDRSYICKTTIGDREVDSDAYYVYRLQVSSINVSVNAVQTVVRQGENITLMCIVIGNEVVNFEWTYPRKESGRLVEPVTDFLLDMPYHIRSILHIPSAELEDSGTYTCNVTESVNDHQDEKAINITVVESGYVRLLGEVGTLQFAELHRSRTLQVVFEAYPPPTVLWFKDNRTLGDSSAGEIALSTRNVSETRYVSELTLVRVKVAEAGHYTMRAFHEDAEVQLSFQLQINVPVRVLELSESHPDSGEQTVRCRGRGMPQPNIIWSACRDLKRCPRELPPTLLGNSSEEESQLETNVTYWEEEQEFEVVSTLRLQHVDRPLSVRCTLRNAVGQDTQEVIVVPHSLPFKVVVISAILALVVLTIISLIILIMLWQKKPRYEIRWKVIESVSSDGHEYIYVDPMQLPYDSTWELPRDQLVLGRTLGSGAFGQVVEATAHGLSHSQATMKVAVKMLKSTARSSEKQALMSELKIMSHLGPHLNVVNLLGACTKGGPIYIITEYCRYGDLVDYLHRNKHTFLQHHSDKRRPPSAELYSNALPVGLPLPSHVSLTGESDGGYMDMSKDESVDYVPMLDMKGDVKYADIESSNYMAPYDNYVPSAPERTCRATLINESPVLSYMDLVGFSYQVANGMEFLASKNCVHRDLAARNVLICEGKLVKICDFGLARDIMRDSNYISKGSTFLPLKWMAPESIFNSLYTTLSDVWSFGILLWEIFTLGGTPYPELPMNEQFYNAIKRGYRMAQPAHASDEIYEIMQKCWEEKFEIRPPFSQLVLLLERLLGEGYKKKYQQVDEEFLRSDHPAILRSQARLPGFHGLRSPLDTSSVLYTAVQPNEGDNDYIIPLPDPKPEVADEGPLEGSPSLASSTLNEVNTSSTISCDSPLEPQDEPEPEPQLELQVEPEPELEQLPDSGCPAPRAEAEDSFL
Experiment [10] has as its system HT-29. As to the kind of experiment: Cytotoxicity against human HT-29 cells after 72 hrs by MTT assay. The settings on record: HT-29, 72 h.
Experiment [11] in a line: Cytotoxicity against human MKN45 cells after 72 hrs by MTT assay. Particulars: MKN-45, 72 h.

Sequence of Hepatocyte growth factor receptor (P08581 whole entry): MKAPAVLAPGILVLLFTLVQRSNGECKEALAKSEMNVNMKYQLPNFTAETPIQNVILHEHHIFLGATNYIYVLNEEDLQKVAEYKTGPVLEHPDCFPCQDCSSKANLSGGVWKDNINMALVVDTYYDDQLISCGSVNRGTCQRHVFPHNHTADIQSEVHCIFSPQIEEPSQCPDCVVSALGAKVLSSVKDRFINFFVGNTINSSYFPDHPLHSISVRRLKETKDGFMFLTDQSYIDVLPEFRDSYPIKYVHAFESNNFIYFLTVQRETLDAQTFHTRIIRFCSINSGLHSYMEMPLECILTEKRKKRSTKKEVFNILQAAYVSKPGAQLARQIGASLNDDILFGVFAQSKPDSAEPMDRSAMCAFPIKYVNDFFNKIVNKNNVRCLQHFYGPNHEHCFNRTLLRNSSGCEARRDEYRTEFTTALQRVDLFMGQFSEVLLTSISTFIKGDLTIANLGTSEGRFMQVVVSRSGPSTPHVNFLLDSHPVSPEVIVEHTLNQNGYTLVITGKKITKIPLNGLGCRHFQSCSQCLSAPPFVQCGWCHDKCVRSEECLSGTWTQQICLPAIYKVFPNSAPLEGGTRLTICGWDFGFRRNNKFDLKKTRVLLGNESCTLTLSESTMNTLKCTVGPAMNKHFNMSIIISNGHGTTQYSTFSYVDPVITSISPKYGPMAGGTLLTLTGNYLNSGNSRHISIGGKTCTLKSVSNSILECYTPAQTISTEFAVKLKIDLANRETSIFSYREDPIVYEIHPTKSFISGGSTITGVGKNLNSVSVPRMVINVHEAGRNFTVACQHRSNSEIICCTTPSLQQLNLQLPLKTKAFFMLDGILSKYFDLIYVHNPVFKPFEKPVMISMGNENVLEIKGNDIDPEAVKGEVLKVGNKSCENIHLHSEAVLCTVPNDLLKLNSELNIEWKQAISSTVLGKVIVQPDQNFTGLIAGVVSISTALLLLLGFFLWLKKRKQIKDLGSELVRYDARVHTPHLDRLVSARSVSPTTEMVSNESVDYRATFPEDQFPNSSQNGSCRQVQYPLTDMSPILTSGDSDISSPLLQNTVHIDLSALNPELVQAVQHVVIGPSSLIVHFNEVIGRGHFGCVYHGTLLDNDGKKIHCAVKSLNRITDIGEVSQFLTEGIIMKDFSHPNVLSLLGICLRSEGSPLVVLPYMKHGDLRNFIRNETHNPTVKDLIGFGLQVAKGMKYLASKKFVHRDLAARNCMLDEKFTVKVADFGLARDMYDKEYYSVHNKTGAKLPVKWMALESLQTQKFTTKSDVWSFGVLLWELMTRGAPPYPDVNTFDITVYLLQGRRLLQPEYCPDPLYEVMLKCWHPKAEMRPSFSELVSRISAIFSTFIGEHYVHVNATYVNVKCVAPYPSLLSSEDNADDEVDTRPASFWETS

On to `COc1cc2c(Oc3ccc(NC(=O)c4nnn(-c5ccc(F)cc5)c4C(F)(F)F)cc3F)ccnc2cc1OCCCN1CCCC1`, for which the IC50 in experiment [1] is 1.04 nM; in experiment [2] it was 150 nM; in experiment [3] it was 65.4 nM; in experiment [4], 8.78 nM; in experiment [5], greater than 10000 nM; in experiment [6], 850 nM. Moreover, the IC50 was 4.02 nM in experiment [7]; 80 nM in experiment [8]; 16.3 nM in [9]; 120 nM in experiment [10]; 21 nM in experiment [11].

On to `COc1cc2c(Oc3ccc(NC(=O)c4nnn(-c5ccccc5C(F)(F)F)c4C(F)(F)F)cc3F)ccnc2cc1OCCCN1CCCC1`, for which the IC50 came out at 3.68 nM in experiment [1]; 270 nM in [2]; 1180 nM in experiment [6]; 200 nM in [8]; 210 nM in experiment [10]; 60 nM in experiment [11].

Turning to `COc1cc2c(Oc3ccc(NC(=O)c4nnn(-c5ccc(C)cc5)c4C(F)(F)F)cc3F)ccnc2cc1OCCCN1CCC(C)CC1`, the IC50 is 2800 nM in experiment [6], 400 nM in experiment [8], 1200 nM in experiment [10] and 140 nM in experiment [11].

For the compound `COc1cc2c(Oc3ccc(NC(=O)c4nnn(-c5ccccc5C(F)(F)F)c4C(F)(F)F)cc3F)ccnc2cc1OCCCN1CCC(C)CC1`, the concentration for half-maximal inhibition (IC50) in experiment [6] came to 1240 nM; in [8] it was 220 nM; in experiment [10], 200 nM; in experiment [11], 100 nM.

Consider `COc1cc2c(Oc3ccc(NC(=O)c4nnn(-c5ccc(F)c(F)c5)c4C(F)(F)F)cc3F)ccnc2cc1OCCCN1CCC(C)CC1`, for which the IC50 in experiment [6] stood at 1150 nM; in experiment [8], 140 nM; in [10], 190 nM; in [11] it was 50 nM.

Regarding `COc1cc2c(Oc3ccc(NC(=O)c4nnn(-c5ccccc5C(F)(F)F)c4C)cc3F)ccnc2cc1OCCCN1CCN(C)CC1`, the 50% inhibitory concentration (IC50) was determined as 1420 nM in experiment [6], 200 nM in experiment [8], 230 nM in [10] and 100 nM in [11].

Turning to `COc1cc2c(Oc3ccc(NC(=O)c4nnn(-c5ccccc5Cl)c4C(F)(F)F)cc3F)ccnc2cc1OCCCN1CCN(C)CC1`, the half-maximal inhibitory concentration (IC50) in experiment [6] came to 1220 nM; in experiment [8] it was 240 nM; in experiment [10] it was 270 nM; in experiment [11], 166 nM.

For the compound `COc1cc2c(Oc3ccc(NC(=O)c4nnn(-c5ccc(C)cc5)c4C(F)(F)F)cc3F)ccnc2cc1OCCCN1CCN(C)CC1`, the IC50 in experiment [6] was found to be 2170 nM; in experiment [8] it was 370 nM; in experiment [10], 1170 nM; in experiment [11] it was 140 nM.

With `COc1cc2c(Oc3ccc(NC(=O)c4nnn(-c5ccccc5C(F)(F)F)c4C(F)(F)F)cc3F)ccnc2cc1OCCCN1CCN(C)CC1`, the IC50 in experiment [6] is 1440 nM; in experiment [8], 180 nM; in experiment [10], 230 nM; in experiment [11], 100 nM.

For `COc1cc2c(Oc3ccc(NC(=O)c4nnn(-c5ccc(F)c(F)c5)c4C(F)(F)F)cc3F)ccnc2cc1OCCCN1CCN(C)CC1`, the half-maximal inhibitory concentration (IC50) in [6] is 1390 nM; in experiment [8], 130 nM; in experiment [10], 150 nM; in [11], 90 nM.
